The values that follow come from ChEMBL document CHEMBL1275276, “Analysis of physico-chemical properties of substrates of ABC and MFS multidrug transporters of pathogenic Candida albicans” (2010).

For assay [1], the system named is Candida albicans. The assay can be described thus: Binding affinity to Candida albicans CaCdr1p expressed in yeast AD1-8u.
Assay [2] relates to Saccharomyces cerevisiae. The assay can be described thus: Antifungal activity against yeast AD1-8u expressing Candida albicans CaMdr1p by agar disk diffusion assay. Note: test concentration or dose not given here. It counts as functional.
The subject of assay [3] is Candida albicans. The assay can be described thus: Binding affinity to Candida albicans CaMdr1p expressed in yeast AD1-8u.
In assay [4] the test system is Saccharomyces cerevisiae. The assay can be described thus: Antifungal activity against yeast AD1-8u expressing Candida albicans CaCdr1p by agar disk diffusion assay. It is filed as functional.

The source made the active and inactive calls. The rule behind the calls is not given here.
Throughout, for IZ: test concentration or dose not given here.

For the compound `CCCCCCCCCCCC[N+](C)(C)CCCS(=O)(=O)[O-]`, the result with Candida albicans [1] was inactive. For the same compound, the entries for the “inhibition zone (IZ)” value in the assay with Saccharomyces cerevisiae [2] and in the assay on Saccharomyces cerevisiae [4] were 0.8 cm and 0.2 cm, respectively. The outcome in the assay on Candida albicans [3] was Active.
The like results for `CCCCCCCCCCCC(=O)OCCN(C)C` were, in that order, “Active”, 0.2 cm, 0.4 cm and “inactive”.
On to `CCCCCCCCCCCC(=O)OCCN(CC)CC`, for which, in the assay with Candida albicans [1], the outcome was inactive. Moreover, the results for the “inhibition zone (IZ)” value in the assay on Saccharomyces cerevisiae [2] and in the assay with Saccharomyces cerevisiae [4] were 0.7 cm and 0.2 cm, respectively. Moreover, the result in the assay with Candida albicans [3] was Active.
The like results for `CCCCCCCCCCCCn1cncn1` were, in that order, “Active”, 0.1 cm, 0.7 cm and “inactive”.
For `CN[C@H]1C[C@@H](N)[C@H](O)[C@@H](O[C@@H]2O[C@H](CO)[C@H](O)[C@H]3O[C@@]4(O[C@H]23)O[C@H]([C@H](N)CO)[C@H](O)[C@H](O)[C@H]4O)[C@@H]1O` the same measures were “inactive”, 0 cm, 0 cm and “inactive”.
The like results for `CCCCCCCCCCCCCC(=O)OCCN(C)C` were, in that order, “inactive”, 0 cm, 0 cm and “inactive”.
For the compound `COc1ccc(CCN(C)CCCC(C#N)(c2ccc(OC)c(OC)c2)C(C)C)cc1OC` (stereo unspecified), the result in the assay on Candida albicans [1] was Active. Moreover, the “inhibition zone (IZ)” value in the assay on Saccharomyces cerevisiae [2] turned out to be 0 cm; in the assay on Saccharomyces cerevisiae [4] it was 0.9 cm. In the assay on Candida albicans [3], the outcome was inactive.
The like results for `CCN(CC)C(=S)SSC(=S)N(CC)CC` were, in that order, “Active”, 0.3 cm, 0.4 cm and “Active”.
The like results for `O=[N+]([O-])c1cc[n+]([O-])c2ccccc12` [4-NITROQUINOLINE-1-OXIDE] were, in that order, “Active”, 0.4 cm, 0.3 cm and “Active”.
For `c1ccc(CNc2ncnc3[nH]cnc23)cc1` [6-BENZYLAMINOPURINE] the same measures were “inactive”, 0 cm, 0 cm and “inactive”.
With `COc1ccc(C[C@H]2NC[C@H](O)[C@H]2OC(C)=O)cc1` [ANISOMYCIN], the outcome with Candida albicans [1] and with Candida albicans [3] was Active. The “inhibition zone (IZ)” value with Saccharomyces cerevisiae [2] worked out at 0.7 cm; with Saccharomyces cerevisiae [4], 0.9 cm.
For the compound `CCCCNC(=O)n1c(NC(=O)OC)nc2ccccc21` [BENOMYL], the result with Candida albicans [1] and in the assay on Candida albicans [3] was Active. The entries for the “inhibition zone (IZ)” value in the assay on Saccharomyces cerevisiae [2] and in the assay on Saccharomyces cerevisiae [4] were 0.4 cm and 0.9 cm, respectively.
Turning to `COc1ccc2cc3[n+](cc2c1OC)CCc1cc2c(cc1-3)OCO2.[Cl-]` [BERBERINE CHLORIDE], in the assay on Candida albicans [1], the result was Active. Further, the “inhibition zone (IZ)” value in the assay on Saccharomyces cerevisiae [2] came out at 0 cm; in the assay with Saccharomyces cerevisiae [4] it was 0.5 cm. Also, the outcome in the assay on Candida albicans [3] was inactive.
For `N#CC(C#N)=NNc1cccc(Cl)c1` [CARBONYL CYANIDE M-CHLOROPHENYLHYDRAZONE] the same measures were “inactive”, 0 cm, 0 cm and “inactive”.
Regarding `COc1cc2ncnc(Nc3ccc(F)c(Cl)c3)c2cc1OCCCN1CCOCC1` [GEFITINIB], the result with Candida albicans [1] was Active. Also, in the assay on Saccharomyces cerevisiae [2], the “inhibition zone (IZ)” value is 0.2 cm. Also, in the assay on Candida albicans [3], the result was inactive.
`CC(=O)N1CCN(c2ccc(OCC3COC(Cn4ccnc4)(c4ccc(Cl)cc4Cl)O3)cc2)CC1` (stereo unspecified) [KETOCONAZOLE]: the result in the assay with Candida albicans [1] was Active. Also, the “inhibition zone (IZ)” value in the assay on Saccharomyces cerevisiae [4] was 1.4 cm.
